Where two headings read alike, the source gives them in different places.
How the values were obtained:
[1] = system: KP1010 (SHV-12); experiment: Tigemonam potentiation (MPC@4); assay type: cell-based
[2] = system: ec302 (TEM-10); experiment: Tigemonam potentiation (MPC@4); assay type: cell-based; conditions: tigemonam 4 μg/mL
[3] = target: KPC-2 (Klebsiella pneumoniae, UniProt Q9F663); experiment: Inhibition of nitrocefin cleavage by purified enzyme (Ki); assay type: biochemical; conditions: nitrocefin reporter substrate; 10 min preincubation; read-out: Ki KPC-2, NCF
Method: (§1) Ki values of inhibition of purified class A, C and D enzymes were determined spectrophotometrically using nitrocefin as reporter substrate. Purified enzymes were mixed with various concentrations of inhibitors in reaction buffer and incubated for 10 min at room temperature. Nitrocefin was added and substrate cleavage profiles were recorded at 490 nm every 10 sec for 10 min. These experiments confirmed that the described compounds are inhibitors with a broad-spectrum of activity towards various β-lactamases.

[4] = target: OXA-48 (Klebsiella pneumoniae, UniProt Q6XEC0); experiment: as above; assay type: biochemical; conditions: nitrocefin reporter substrate; 10 min preincubation; read-out: Ki OXA-48, NCF
Method: as §1

[5] = target: CMY-2 (Klebsiella pneumoniae, UniProt Q48434); experiment: as above; assay type: biochemical; conditions: nitrocefin reporter substrate; 10 min preincubation; read-out: Ki CMY-2, NCF
Method: as §1

[6] = system: ec302 (TEM-10); experiment: Aztreonam potentiation (MPC@4); assay type: cell-based; conditions: aztreonam 4 μg/mL
[7] = system: EC1010 (CMY-6); experiment: Tigemonam potentiation (MPC@4); assay type: cell-based
[8] = system: EC1010 (CMY-6); experiment: Aztreonam potentiation (MPC@4); assay type: cell-based; conditions: aztreonam 4 μg/mL
[9] = system: KP1086 (OXA-48); experiment: Biapenem potentiation (MPC@1); conditions: biapenem 1 μg/mL
[10] = system: KP1009 (CTX-M-15); experiment: Aztreonam potentiation (MPC@4); assay type: cell-based; conditions: aztreonam 4 μg/mL
[11] = target: CTX-M-14 (Escherichia coli, UniProt Q9L5C7); experiment: Inhibition of nitrocefin cleavage by purified enzyme (Ki); assay type: biochemical; conditions: nitrocefin reporter substrate; 10 min preincubation; read-out: Ki CTX-M-14, NCF
Method: as §1, with “min.” for “min. These experiments confirmed that the described compounds are inhibitors with a broad-spectrum of activity towards various β-lactamases.”

[12] = system: KP1009 (CTX-M-15); experiment: Tigemonam potentiation (MPC@4); assay type: cell-based
[13] = system: KP1004 (KPC-2); experiment: Aztreonam potentiation (MPC@4); assay type: cell-based; conditions: aztreonam 4 μg/mL
[14] = system: ec308 (SHV-5); experiment: Aztreonam potentiation (MPC@4); assay type: cell-based; conditions: aztreonam 4 μg/mL
[15] = system: KP1004 (KPC-2); experiment: Biapenem potentiation (MPC@1); conditions: biapenem 1 μg/mL
[16] = system: KP1010 (SHV-12); experiment: Aztreonam potentiation (MPC@4); assay type: cell-based; conditions: aztreonam 4 μg/mL
[17] = system: KP1005 (CTX-M-14); experiment: Tigemonam potentiation (MPC@4); assay type: cell-based; conditions: tigemonam 4 μg/mL
[18] = system: ECL1002; experiment: Aztreonam potentiation (MPC@4); assay type: cell-based; conditions: aztreonam 4 μg/mL
[19] = system: ECL1002; experiment: Tigemonam potentiation (MPC@4); assay type: cell-based; conditions: tigemonam 4 μg/mL
[20] = system: KP1005 (CTX-M-14); experiment: Aztreonam potentiation (MPC@4); assay type: cell-based; conditions: aztreonam 4 μg/mL
[21] = system: ec308 (SHV-5); experiment: Tigemonam potentiation (MPC@4); assay type: cell-based; conditions: tigemonam 4 μg/mL
[22] = system: PAM1032/KPC-2; experiment: Biapenem potentiation MPC64, efflux proficient strain; assay type: cell-based, Pseudomonas aeruginosa; design: unit not given here; conditions: efflux proficient (MexAB-OprM overexpressed); decrease biapenem MIC 64-fold, 32 to 0.5 μg/ml
Method: (§2) Efflux of BLIs from Pseudomonas aeruginosa by the MexAB-OprM efflux pump was also evaluated. The plasmid expressing the gene encoding KPC-2 was introduced into two strains of P. aeruginosa, PAM1032 and PAM1154 that overexpressed or lacked MexAB-OprM, respectively. Due to expression of KPC-2 both strains became resistant to biapenem. […] Potency of BLIs to potentiate biapenem in these strains was determined. […] The ratio of MPC64 values for each BLI in PAM1032/KPC-2 (efflux proficient) and PAM1154/KPC-2 (efflux deficient) was determined to generate the Efflux Index (EI).

[23] = system: PAM1154/KPC-2; experiment: Biapenem potentiation MPC64, efflux deficient strain; assay type: cell-based, Pseudomonas aeruginosa; design: unit not given here; conditions: efflux deficient (lacks MexAB-OprM); decrease biapenem MIC 64-fold, 32 to 0.5 μg/ml
Method: as §2

[24] = target: P99 (Enterobacter cloacae, UniProt P05364); experiment: biochemical; conditions: nitrocefin reporter substrate; 10 min preincubation; read-out: Ki P99, NCF
Method: as §1, with “min.” for “min. These experiments confirmed that the described compounds are inhibitors with a broad-spectrum of activity towards various β-lactamases.”

[25] = target: SHV-12 (Klebsiella pneumoniae, UniProt P0AD64, E235K/G234S/L31Q); experiment: Inhibition of nitrocefin cleavage by purified enzyme (Ki); assay type: biochemical
Method: as §1, with “min.” for “min. These experiments confirmed that the described compounds are inhibitors with a broad-spectrum of activity towards various β-lactamases.”

Chain of CTX-M-14 (Q9L5C7 29-291): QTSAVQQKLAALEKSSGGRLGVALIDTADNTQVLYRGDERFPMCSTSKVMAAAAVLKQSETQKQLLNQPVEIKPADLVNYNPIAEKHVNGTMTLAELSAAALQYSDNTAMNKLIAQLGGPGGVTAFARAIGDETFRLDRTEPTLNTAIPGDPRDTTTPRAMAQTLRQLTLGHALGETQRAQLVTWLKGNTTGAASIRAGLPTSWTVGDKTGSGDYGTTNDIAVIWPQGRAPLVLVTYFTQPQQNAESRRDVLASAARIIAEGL
Chain of OXA-48 (Q6XEC0 23-265, looked up, species assumed): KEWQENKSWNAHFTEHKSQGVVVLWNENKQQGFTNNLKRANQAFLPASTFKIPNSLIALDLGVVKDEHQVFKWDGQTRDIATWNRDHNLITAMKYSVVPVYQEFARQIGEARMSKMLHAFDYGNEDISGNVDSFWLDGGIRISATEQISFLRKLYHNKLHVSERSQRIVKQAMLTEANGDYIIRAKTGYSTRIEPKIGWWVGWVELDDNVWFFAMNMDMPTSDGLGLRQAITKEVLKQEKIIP
Chain of CMY-2 (Q48434 21-381, species assumed): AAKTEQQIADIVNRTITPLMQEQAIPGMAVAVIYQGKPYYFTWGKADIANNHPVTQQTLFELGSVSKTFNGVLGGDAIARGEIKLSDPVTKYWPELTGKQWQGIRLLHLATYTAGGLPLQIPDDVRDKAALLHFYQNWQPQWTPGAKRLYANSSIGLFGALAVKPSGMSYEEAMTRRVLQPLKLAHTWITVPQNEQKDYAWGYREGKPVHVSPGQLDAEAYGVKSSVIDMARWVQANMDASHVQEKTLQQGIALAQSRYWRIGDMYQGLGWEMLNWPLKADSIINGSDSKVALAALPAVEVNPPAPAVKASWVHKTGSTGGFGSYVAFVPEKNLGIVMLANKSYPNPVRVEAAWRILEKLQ
Chain of KPC-2 (Q9F663 25-293, looked up, species assumed): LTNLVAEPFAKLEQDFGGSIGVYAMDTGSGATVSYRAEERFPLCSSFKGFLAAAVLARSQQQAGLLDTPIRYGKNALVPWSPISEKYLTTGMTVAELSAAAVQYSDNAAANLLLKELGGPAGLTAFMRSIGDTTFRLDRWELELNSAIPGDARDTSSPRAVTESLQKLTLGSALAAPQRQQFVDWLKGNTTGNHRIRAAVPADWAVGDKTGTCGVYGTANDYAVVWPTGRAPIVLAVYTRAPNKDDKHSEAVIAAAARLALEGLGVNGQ
Chain of P99 (P05364 21-381): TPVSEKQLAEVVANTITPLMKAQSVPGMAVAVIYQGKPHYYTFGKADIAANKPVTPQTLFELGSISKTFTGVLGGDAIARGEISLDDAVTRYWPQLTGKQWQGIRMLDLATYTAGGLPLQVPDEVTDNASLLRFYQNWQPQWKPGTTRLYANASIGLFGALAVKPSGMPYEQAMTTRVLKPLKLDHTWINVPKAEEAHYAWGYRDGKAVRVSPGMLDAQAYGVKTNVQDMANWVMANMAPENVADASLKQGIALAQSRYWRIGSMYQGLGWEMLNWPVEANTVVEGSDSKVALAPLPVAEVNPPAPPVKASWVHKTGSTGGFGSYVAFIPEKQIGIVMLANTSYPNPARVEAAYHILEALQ
Chain of SHV-12 (P0AD64 22-286 L31Q/G234S/E235K): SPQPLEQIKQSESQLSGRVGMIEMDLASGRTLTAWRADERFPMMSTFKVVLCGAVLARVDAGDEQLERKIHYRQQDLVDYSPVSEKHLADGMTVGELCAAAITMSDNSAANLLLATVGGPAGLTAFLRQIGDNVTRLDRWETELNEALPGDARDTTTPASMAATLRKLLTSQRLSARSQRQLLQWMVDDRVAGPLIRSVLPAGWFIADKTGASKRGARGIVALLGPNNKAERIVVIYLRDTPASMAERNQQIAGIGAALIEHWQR

SMILES | MPC@4 tigemonam potentiation [1] | MPC@4 tigemonam potentiation [2] | Ki [3] [nM] | Ki [4] [nM] | Ki [5] [nM] | MPC@4 aztreonam potentiation [6] | MPC@4 aztreonam potentiation [8] | MPC@1 biapenem potentiation [9] | MPC@4 aztreonam potentiation [10] | Ki [11] [nM] | MPC@4 tigemonam potentiation [12] | MPC@4 aztreonam potentiation [13] | MPC@4 aztreonam potentiation [14] | MPC@1 biapenem potentiation [15] | MPC@4 aztreonam potentiation [16] | MPC@4 tigemonam potentiation [17] | MPC@4 aztreonam potentiation [18] | MPC@4 tigemonam potentiation [19] | MPC@4 aztreonam potentiation [20] | MPC@4 tigemonam potentiation [21] | also measured
O=C(O)[C@H]1/C(=C/CO)O[C@@H]2CC(=O)N21 [Clavulanic Acid, reference compound] | X (key: X = MPC@4 ≤ 5 μg/mL; Y = 5 μg/mL < MPC@4 ≤ 20 μg/mL; Z = MPC@4 > 20 μg/mL) | X (X = MPC@4 ≤ 5 μg/mL) | > 1000 | > 1000 | > 1000 | X (X = MPC@4 ≤ 5 μg/mL) | Z (Z = MPC@4 > 20 μg/mL) | Z (Z = MPC@1 > 20 μg/mL) | X (X = MPC@4 ≤ 5 μg/mL) | < 100 | X (key: X = MPC@4 ≤ 5 μg/mL; Y = 5 μg/mL < MPC@4 ≤ 20 μg/mL; Z = MPC@4 > 20 μg/mL) | Z (Z = MPC@4 > 20 μg/mL) | X (X = MPC@4 ≤ 5 μg/mL) | Y (Y = 5 μg/mL < MPC@1 ≤ 20 μg/mL) | X (X = MPC@4 ≤ 5 μg/mL) | X (X = MPC@4 ≤ 5 μg/mL) | Z (Z = MPC@4 > 20 μg/mL) | Y (Y = 5 μg/mL < MPC@4 ≤ 20 μg/mL) | X (X = MPC@4 ≤ 5 μg/mL) | X (X = MPC@4 ≤ 5 μg/mL) | MPC@4 tigemonam potentiation [7]: Y (key: X = MPC@4 ≤ 5 μg/mL; Y = 5 μg/mL < MPC@4 ≤ 20 μg/mL; Z = MPC@4 > 20 μg/mL)
N#CCSCC(=O)N[C@H]1CC=C[C@@H]2CC(=O)OB1O2 [Compound 2, 2-(CYANOMETHYLTHIO)-N-((2R,6S)-8-OXO-9,10-DIOXA-1-BORABICYCLO[4.3.1]DEC-4-EN-2-YL)ACETAMIDE] | X (key: X = MPC@4 ≤ 5 μg/mL; Y = 5 μg/mL < MPC@4 ≤ 20 μg/mL; Z = MPC@4 > 20 μg/mL) | Y (Y = 5 μg/mL < MPC@4 ≤ 20 μg/mL) | 100 to 1000 | 100 to 1000 | < 100 | X (X = MPC@4 ≤ 5 μg/mL) | X (X = MPC@4 ≤ 5 μg/mL) | Z (Z = MPC@1 > 20 μg/mL) | X (X = MPC@4 ≤ 5 μg/mL) | < 100 | X (key: X = MPC@4 ≤ 5 μg/mL; Y = 5 μg/mL < MPC@4 ≤ 20 μg/mL; Z = MPC@4 > 20 μg/mL) | X (X = MPC@4 ≤ 5 μg/mL) | X (X = MPC@4 ≤ 5 μg/mL) | X (X = MPC@1 ≤ 5 μg/mL) | X (X = MPC@4 ≤ 5 μg/mL) | X (X = MPC@4 ≤ 5 μg/mL) | X (X = MPC@4 ≤ 5 μg/mL) | X (X = MPC@4 ≤ 5 μg/mL) | X (X = MPC@4 ≤ 5 μg/mL) | X (X = MPC@4 ≤ 5 μg/mL) | MPC@4 tigemonam potentiation ([7]; tigemonam 4 μg/mL, EC1010, CMY-6): X (X = MPC@4 ≤ 5 μg/mL); PAM1032/KPC-2 Biapenem MPC64 [22]: 80; PAM1154/KPC-2 Biapenem MPC64 [23]: 5; Ki [24]: < 100 nM; Ki [25]: < 100 nM

— patent US10662205B2, “Cyclic boronic acid ester derivatives and therapeutic uses thereof” (priority 2014, dated 2020)
